Assays:
[1] = target: human α2δ-1 subunit of Cav2.2 calcium channel (Homo sapiens, UniProt P54289); test: Binding assay to human α2δ-1 subunit of Cav2.2 calcium channel ([3H]-Gabapentin); details: [3H]-Gabapentin 15 nM, human α2δ-1 enriched membranes
Method: Binding assay to human α2δ-1 subunit of Cav2.2 calcium channel. Human a26-1 enriched membranes (2.5 μg) were incubated with 15 nM of radiolabeled [3H]-Gabapentin in assay buffer containing Hepes-KOH 10 mM, pH 7.4. NSB (non specific binding) was measured by adding 10 μM pregabalin. The binding of the test compound was measured at either one concentration (% inhibition at 1 or 10 μM) or five different concentrations to determine affinity values (Ki). After 60 min incubation at 27° C., binding reaction was terminated by filtering through Multiscreen GF/C (Millipore) presoaked in 0.5% polyethyleneimine in Vacuum Manifold Station, followed by 3 washes with ice-cold filtration buffer containing 50 mM Tris-HCl, pH 7.4. Filter plates were dried at 60° C. for 1 hour and 30 μl of scintillation cocktail were added to each well before radioactivity reading. Readings were performed in a Trilux 1450 Microbeta radioactive counter (Perkin Elmer).

[2] = target: human norepinephrine transporter (NET) (Homo sapiens, UniProt P23975); test: Binding assay to human norepinephrine transporter (NET) ([3H]-Nisoxetin); details: [3H]-Nisoxetin 5 nM, human NET enriched membranes
Sequence of human norepinephrine transporter (NET) (P23975 whole entry): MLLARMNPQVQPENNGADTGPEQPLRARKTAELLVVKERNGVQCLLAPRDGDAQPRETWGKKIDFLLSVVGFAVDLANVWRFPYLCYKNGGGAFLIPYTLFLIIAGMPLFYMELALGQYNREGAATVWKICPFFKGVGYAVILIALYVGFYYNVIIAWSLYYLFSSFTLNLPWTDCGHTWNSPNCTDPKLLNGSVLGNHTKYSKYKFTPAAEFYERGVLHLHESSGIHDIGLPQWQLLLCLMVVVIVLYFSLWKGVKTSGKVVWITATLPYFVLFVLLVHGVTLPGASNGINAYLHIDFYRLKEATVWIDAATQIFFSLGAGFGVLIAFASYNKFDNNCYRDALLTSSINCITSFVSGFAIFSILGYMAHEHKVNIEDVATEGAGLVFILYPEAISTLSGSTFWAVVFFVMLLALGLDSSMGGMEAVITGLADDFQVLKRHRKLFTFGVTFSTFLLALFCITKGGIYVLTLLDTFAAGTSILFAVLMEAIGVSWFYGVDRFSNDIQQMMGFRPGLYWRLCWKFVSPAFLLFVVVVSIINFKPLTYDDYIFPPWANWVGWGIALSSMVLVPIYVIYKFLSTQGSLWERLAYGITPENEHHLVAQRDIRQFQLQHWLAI
Method: Binding assay to human norepinephrine transporter (NET).
Human norepinephrine transporter (NET) enriched membranes ([…]) were incubated with 5 nM of radiolabeled [3H]-Nisoxetin in assay buffer containing 50mM Tris-HCl, 120mM NaCl, 5mM KCI, pH 7.4. NSB (non specific binding) was measured by adding […] of desipramine. The binding of the test compound was measured at either one concentration (% inhibition at 1 or 10 μM) or five different concentrations to determine affinity values (Ki). After 60 min incubation at 4° C., binding reaction was terminated by filtering through Multiscreen GF/C (Millipore) presoaked in 0.5% polyethyleneimine in Vacuum Manifold Station, followed by 3 washes with ice-cold filtration buffer containing 50mM Tris-HCl, 0.9% NaCl, pH 7.4. Filter plates were dried at 60° C. for 1 hour and 30 µl of scintillation cocktail were added to each well before radioactivity reading. Readings were performed in a Trilux 1450 Microbeta radioactive counter (Perkin Elmer).

Sequence of human α2δ-1 subunit of Cav2.2 calcium channel (P54289 25-1103): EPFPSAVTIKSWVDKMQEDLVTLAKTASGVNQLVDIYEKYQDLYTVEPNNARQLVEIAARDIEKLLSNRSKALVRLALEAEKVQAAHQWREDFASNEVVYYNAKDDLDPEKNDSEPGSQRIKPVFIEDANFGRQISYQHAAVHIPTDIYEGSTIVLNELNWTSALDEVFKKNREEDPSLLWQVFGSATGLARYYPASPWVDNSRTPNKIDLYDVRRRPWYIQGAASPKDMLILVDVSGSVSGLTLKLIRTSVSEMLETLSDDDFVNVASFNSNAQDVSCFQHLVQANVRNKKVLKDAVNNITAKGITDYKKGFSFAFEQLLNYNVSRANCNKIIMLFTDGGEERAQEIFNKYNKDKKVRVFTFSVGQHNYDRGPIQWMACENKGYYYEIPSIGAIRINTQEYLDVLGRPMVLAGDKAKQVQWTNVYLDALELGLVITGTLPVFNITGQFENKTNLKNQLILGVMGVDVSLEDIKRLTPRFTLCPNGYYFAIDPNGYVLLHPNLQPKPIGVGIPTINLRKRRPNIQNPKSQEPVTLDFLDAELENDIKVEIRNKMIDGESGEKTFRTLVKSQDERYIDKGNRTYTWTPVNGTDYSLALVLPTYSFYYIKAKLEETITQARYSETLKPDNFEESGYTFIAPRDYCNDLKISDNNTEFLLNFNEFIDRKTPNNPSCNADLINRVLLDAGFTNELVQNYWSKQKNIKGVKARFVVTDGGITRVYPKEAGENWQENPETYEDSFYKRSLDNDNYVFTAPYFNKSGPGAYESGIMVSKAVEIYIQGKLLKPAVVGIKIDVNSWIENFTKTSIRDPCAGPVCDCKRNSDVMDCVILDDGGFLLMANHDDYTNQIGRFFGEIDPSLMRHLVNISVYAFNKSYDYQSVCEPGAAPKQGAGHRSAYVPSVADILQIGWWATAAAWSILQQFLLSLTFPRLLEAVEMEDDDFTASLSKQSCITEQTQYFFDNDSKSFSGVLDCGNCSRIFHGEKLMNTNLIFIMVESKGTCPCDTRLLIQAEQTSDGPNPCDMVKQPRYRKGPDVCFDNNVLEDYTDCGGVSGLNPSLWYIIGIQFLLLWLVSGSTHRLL

| SMILES | Ki [1] | Ki [2] |
| --- | --- | --- |
| CNCC[C@H](Oc1ccc(CN2CCN(C)c3ccncc3C2=O)c(C)c1)c1ccccc1 [Example 1, (S)-1-Methyl-4-(2-methyl-4-(3-(methylamino)-1-phenylpropoxy)benzyl) -1,2,3,4-tetrahydro-5H-pyrido[4,3-e][1,4]cliazepin-5-one] | 100 to 500 nM | 100 to 500 nM |
| CCNc1ncc2c(n1)N(C)CCN(Cc1ncc(O[C@@H](CCNC)c3cccc(F)c3)cc1F)C2=O [Example 6, (S)-2-(Ethylamino)-6-((3-fluoro-5-(1-(3-fluorophenyl)-3-(methylamino)propoxy)pyridin-2-yl)methyl)-9-methyl-6,7,8,9-tetrahydro-5H-pyrimido[4,5-e][1,4]diazepin-5-one] | < 100 nM | 100 to 500 nM |
| CNCC[C@H](Oc1ccc(CN2CCN(C)c3nc(N)ncc3C2=O)c(F)c1)c1ccccc1 [Example 11, (S)-2-Amino-6-(2-fluoro-4-(3-(methylamino)-1-phenylpropoxy)benzyl)-9-methyl-6,7,8,9-tetrahydro-5H-pyrimido[4,5-e][1,4]diazepin-5-one] | < 100 nM | 100 to 500 nM |
| CNCC[C@H](Oc1ccc(CN2CCN(C)c3cc(OC)ncc3C2=O)c(F)c1)c1ccccc1 [Example 12, (S)-4-(2-Fluoro-4-(3-(methylamino)-1-phenylpropoxy)benzyl)-8-methoxy-1-methyl-1,2,3,4-tetrahydro-5H-pyrido[4,3-e][1,4]diazepin-5-one] | < 100 nM | 100 to 500 nM |
| CNCC[C@H](Oc1ccc(CN2CCN(C)c3ncncc3C2=O)c(C)c1)c1ccccc1 [Example 3, (S)-9-Methyl-6-(2-methyl-4-(3-(methylamino)-1-phenylpropoxy)benzyl)-6,7,8,9-tetrahydro-5H-pyrimido[4,5-e][1,4]diazepin-5-one] | < 100 nM | < 100 nM |
| CNCC[C@H](Oc1ccc(CN2CCN(C)c3nc(OC)ncc3C2=O)c(C)c1)c1ccccc1 [Example 2, (S)-2-Methoxy-9-methyl-6-(2-methyl-4-(3-(methylamino)-1-phenylpropoxy)benzyl)-6,7,8,9-tetrahydro-5H-pyrimido[4,5-e][1,4]diazepin-5-one] | < 100 nM | < 100 nM |
| CCNc1ncc2c(n1)N(C)CCN(Cc1ccc(O[C@@H](CCNC)c3cccc(F)c3)cc1F)C2=O [Example 14, (S)-2-(Ethylamino)-6-(2-fluoro-4-(1-(3-fluorophenyl)-3-(methylamino)propoxy)benzyl)-9-methyl-6,7,8,9-tetrahydro-5H-pyrimido[4,5-e][1,4]diazepin-5-one] | < 100 nM | 100 to 500 nM |
| CNCC[C@H](Oc1ccc(CN2CCN(C)c3ccncc3C2=O)c(F)c1)c1ccccc1 [Example 8, (S)-4-(2-Fluoro-4-(3-(methylamino)-1-phenylpropoxy)benzyI)-1-methyl-1,2,3,4-tetrahydro-5H-pyrido[4,3-e][1,4]diazepin-5-one] | < 100 nM | 100 to 500 nM |
| CCNc1ncc2c(n1)N(C)CCN(Cc1ccc(O[C@H](CCNC)c3cccc(F)c3)cc1F)C2=O [Example 13, (R)-2-(Ethylamino)-6-(2-fluoro-4-(1-(3-fluorophenyl)-3-(methylamino)propoxy)benzyl)-9-methyl-6,7,8,9-tetrahydro-5H-pyrimido[4,5-e][1,4]diazepin-5-one] | ≥ 3000 nM | 500 to 1000 nM |
| CNCC[C@H](Oc1ccc(CN2CCN(C)c3ncncc3C2=O)c(F)c1)c1ccccc1 [Example 10, (S)-6-(2-Fluoro-4-(3-(methylamino)-1-phenylpropoxy)benzyl)-9-methyl-6,7,8,9-tetrahydro-5H-pyrimido[4,5-e][1,4]diazepin-5-one] | < 100 nM | < 100 nM |

Results, then the molecule that gave them:

| Ki [1] | Ki [2] | SMILES |
| --- | --- | --- |
| < 100 nM | < 100 nM | CNCC[C@H](Oc1cnc(CN2CCN(C)c3cc(OC)ncc3C2=O)c(F)c1)c1cccs1 [Example 15, (S)-4-((3-Fluoro-5-(3-(methylamino)-1-(thiophen-2-yl)propoxy)pyridin-2-yl)methyl)-8-methoxy-1-methyl-1,2,3,4-tetrahydro-5H-pyrido[4,3-e][1,4]diazepi n-5-one.] |
| < 100 nM | 100 to 500 nM | CCNc1ncc2c(n1)N(C)CCN(Cc1ccc(O[C@@H](CCNC)c3ccccc3)cc1Cl)C2=O [Example 5, (S)-6-(2-Chloro-4-(3-(methylamino)-1-phenylpropoxy)benzyl)-2-(ethylamino)-9-methyl-6,7,8,9-tetrahydro-5H-pyrimido[4,5-e][1,4]diazepin-5-one] |
| < 100 nM | 100 to 500 nM | CNCC[C@H](Oc1ccc(CN2CCN(C)c3nc(OC)ncc3C2=O)c(F)c1)c1ccccc1 [Example 9, (S)-6-(2-Fluoro-4-(3-(methylamino)-1-phenylpropoxy)benzyl)-2-methoxy-9-methyl-6,7,8,9-tetrahydro-5H-pyrimido[4,5-e][1,4]diazepin-5-one] |
| < 100 nM | < 100 nM | CNCC[C@H](Oc1cnc(CN2CCN(C)c3nc(N)ncc3C2=O)c(F)c1)c1cccc(F)c1 [Example 7, (S)-2-Amino-6-((3-fluoro-5-(1-(3-fluorophenyl)-3-(methylamino)propoxy)pyridin-2-yl)methyl)-9-methyl-6,7,8,9-tetrahydro-5H-pyrimido[4,5-e][1,4]diazepin-5-one] |
| < 100 nM | < 100 nM | CNCC[C@H](Oc1ccc(CN2CCN(C)c3nc(N)ncc3C2=O)c(Cl)c1)c1ccccc1 [Example 4, (S)-2-Amino-6-(2-chloro-4-(3-(methylamino)-1-phenylpropoxy)benzyl)-9-methyl-6,7,8,9-tetrahydro-5H-pyrimido[4,5-e][1,4]diazepin-5-one] |

— US20210395254A1, “NEW TETRAHYDROPYRIMIDODIAZEPIN AND TETRAHYDROPYRIDODIAZEPIN COMPOUNDS FOR TREATING PAIN AND PAIN RELATED CONDITIONS” (ESTEVE PHARMACEUTICALS, S.A., priority 2018, published 2021)
